# Data taken from patent US20050165000A1, “Pharmaceutical compositions containing an hiv integrase inhibitor and a nonionic surfactant” (priority 2002, published 2005).
# Legend:
# [1] = oral bioavailability when administered to animals; type: in vivo
# Experimental: (§1) Since the physiological pH typically lies within this range, the rate of the drug's dissolution in and absorption from the gastrointestinal tract can be low, particularly when the drug is administered in a solid dosage form. The same or similar formulation difficulties can be expected for other 8-hydroxy-1,6-naphthyridine-7-carboxamides of this class and their salts having low solubility at physiological pH's.
# Particle size can affect the oral bioavailability of the active drug substances employed in the pharmaceutical compositions of the invention. […] Accordingly, embodiments of the present invention include each of the pharmaceutical compositions defined and described above, wherein the active drug substance (i.e., Compound I or II or A or B or a pharmaceutically acceptable salt thereof) employed therein has a mean particle size of from about 1 to about 20 μm, or from about 1 to about 10 μm (e.g., from about 3 to about 6 μm wherein 90% of the particles are less than 10 μm).
# HIV replication = assay: inhibition of acute HIV infection of T-lymphoid cells; type: cell-based
# Text: The active drug substances employed in the pharmaceutical compositions of the present invention (e.g., the 8-hydroxy-1,6-naphthyridine-7-carboxamide compounds of Formula (I) and (II) and Compounds A and B) are inhibitors of HIV integrase. […] Integrase inhibition activity can be determined, for example, using the assay described in Hazuda et al., J. Virol. 1997, 71: 7005-7011. […] Further description of representative compound embraced by Formula I, assays for measuring their integrase inhibition activity and HIV replication activity can be found in WO 02/30930.
# [2] = in vitro dispersion of Compound A in aqueous surfactant solutions; type: physicochemical; details: aqueous media at physiological pHs, in the absence of a nonionic surfactant or in the presence of SLS; Na salt milled to 3 μm
# Text: This PK data is consistent with the results of in vitro experiments characterizing the ability of these surfactants to disperse Compound A. In these experiments, Compound A Na salt (milled to a 3 μm mean particle size) was suspended in acidified aqueous solutions of the surfactant, and the surfactants were ranked for effectiveness in dispersing Compound A based on a visual evaluation of the suspension for turbidity and particle size. The visual evaluations were confirmed by measuring the particle size distributions in the suspensions using a laser scattering particle size distribution analyzer. The results of these tests have shown that Compound A drug particles flocculate in aqueous media at physiological pHs in the absence of a nonionic surfactant or in the presence of SLS.
# HIV integrase = target: T1, HIV integrase (Human immunodeficiency virus type 1 group M subtype B, UniProt P04585); assay: integrase inhibition assay, strand transfer catalyzed by recombinant integrase; type: biochemical
# T1 construct: strand transfer is catalyzed by recombinant integrase
# Text: Integrase inhibition activity can be determined, for example, using the assay described in Hazuda et al., J. Virol. 1997, 71: 7005-7011.
# [3] = wettability and water solubility; type: physicochemical
# Experimental: as §1
# [4] = animals, aqueous suspensions containing 0.5 wt. % methocel and 0.02 wt. % sodium lauryl sulfate
SMILES,"oral bioavailability [1, 4]","oral bioavailability ([1]; animals, wet granulated compressed tablets with lactose, hydroxypropylcellulose, Na croscarmellose, microcrystalline cellulose, Mg stearate (no surfactant))","oral bioavailability ([1]; capsules containing bulk Compound A sodium salt, versus the suspension)",inhibition of HIV replication (HIV replication),"dispersion of drug particles (turbidity, particle size) [2]",HIV integrase inhibition in the strand transfer assay (HIV integrase),wettability [3],water solubility ([3]; pH's between about 2 and about 8)
"O=C(NCc1ccc(F)cc1)c1nc(N2CCCCS2(=O)=O)c2cccnc2c1[O-].[Na+] [Compound A sodium salt, 5-(N-1,4-butanesultam)-N-(4-fluorobenzyl)-8-hydroxy-1,6-naphthyridine-7-carboxamide sodium salt]",satisfactory oral bioavailability,poor oral bioavailability,substantially lower oral bioavailability,–,–,–,–,–
"O=C(NCc1ccc(F)cc1)c1nc(N2CCCCS2(=O)=O)c2cccnc2c1O [Compound A, 5-(1,1-dioxido-1,2-thiazinan-2-yl)-N-(4-fluorobenzyl)-8-hydroxy-1,6-naphthyridine-7-carboxamide]",satisfactory oral bioavailability,–,–,very effective,flocculate,potent HIV integrase inhibitors,poor wettability,low water solubility
"CNC(=O)c1cc(F)ccc1CNC(=O)c1nc(N2CCCCS2(=O)=O)c2cccnc2c1O [Compound B, N-{4-fluoro-2-[(methylamino)carbonyl]benzyl}-5-(1,1-dioxido-1,2-thiazinan-2-yl)-8-hydroxy-1,6-naphthyridine-7-carboxamide]",–,–,–,very effective,–,potent HIV integrase inhibitors,–,–
